In PMC3551756, “HIV-1 Fusion Is Blocked through Binding of GB Virus C E2D Peptides to the HIV-1 gp41 Disulfide Loop” (PLoS ONE, 2013):

How the values were obtained:
CCR5 = CCR5 surface expression, flow cytometry; assay type: cell-based, human; details: PBMC and TZM-bl cells; E2 peptides 25 µM, RANTES 50 nM; 6 hr; FACS; RTCN vs mock; average of two independent experiments each in triplicate
Procedure: (§1) PHA/IL-2-stimulated PBMC or TZM-bl cells were incubated with E2 peptides (25 µM), phorbol 12-myristate 13-acetate (PMA; 40 ng/ml), SDF-1α (1 µg/ml) or RANTES (50 nM) for 6 hr. CD4, CXCR4 and CCR5 surface expression was analyzed by using standard FACS staining protocols. Cells were washed with PBS and incubated for 30 min at 4°C with PE-labeled antibodies (CD4 clone SK3, CXCR4 clone 12G5, and CCR5 clone 2D7, BD Biosciences, Germany). Subsequently, washed cells were resuspended in PBS and analyzed with a FACSCalibur™ flow cytometer (BD Biosciences, Germany).
(§2) The non-HIV-1-inhibitory peptide P28 derived from the C-terminal part of E2 (residue 271 to 290), served as a negative control.
(§3) CD4, CXCR4 and CCR5 expression on PBMC (A) and TZM-bl cells (B) after preincubation with E2 peptides were determined by flow cytometry analysis. […] Percentages illustrate the ratio-to-cell-negative (RTCN) values that were calculated from the percentage of positive cells and the fluorescence intensity of peptide-incubated cells compared to mock-incubated cells. Columns show average values ±SD of two independent experiments each performed in triplicate. *: p<0.05; **: p<0.01 (mock- vs. inhibitor-incubated cells).

[1] = tested on: HIV-1 NL4-3 / TZM-bl cells; experiment: HIV-1 virion-based (BlaM-Vpr) virus-cell fusion assay; details: standard (pre-CD4 binding) and TAS (post-CD4 binding, 23°C 1 h then 37°C 2 hr); E2 peptides 20 µM, AMD-3100 10 µM, 2F5 0.5 µg/ml, b12 and B4 0.3 µg/ml; five independent experiments each in triplicate
Procedure: HIV-1 virions containing the BlaM-Vpr chimera were produced as previously described [33]. Briefly, 293T cells were co-transfected with pNL4-3 proviral DNA, pCMV-BlaM-Vpr, and pAdVAntage vectors. After 2 days of cultivation, the virus-containing supernatant was centrifuged for 10 min at 300×g to remove cellular debris. The HIV-1 virion-containing supernatant was overlaid onto a 20% sucrose cushion and ultracentrifuged at 35000×g at 4°C for 90 min. The resulting pellet was resuspended in medium and aliquots were frozen at −80°C until usage.
The virion-based fusion assay was performed essentially as described elsewhere [41]. Briefly, 5×10^4 TZM-bl cells were infected with sucrose-purified HIV-1 NL4-3 virions containing BlaM-Vpr (5 ng p24-Gag per approach). Under temperature-arrested state (TAS) conditions, binding of the HI virions to target cells was allowed at low temperature via spinning inoculation, for which virions were added to cells and centrifuged at 2095×g, 4°C for 30 min. […] BlaM activity was quantified using a fluorescence plate reader. The extent of virus-cell fusion was determined from the ratio of blue (460 nm) and green (510 nm) emission upon exciting the cells at 405 nm.
To find out whether early or late steps of HIV-1 entry are affected by the E2 peptides, the E2 peptide activity was determined before and after gp120/CD4 engagement using the Vpr-β-lactamase (Vpr-BlaM) enzyme-based virus-cell fusion assay under standard (pre-CD4 binding) and temperature-arrested state (TAS; post-CD4 binding) conditions, respectively.
The HIV-inhibitory activity of known HIV-1 entry inhibitors or respective E2 peptides was determined using a virus-cell fusion assay under standard (respective inhibitors were added simultaneously to HIV NL4-3BlaM-Vpr inoculum: pre-CD4 binding) or under TAS (temperature-arrested state) conditions (respective inhibitors were added at low temperature of 23°C for 1 h after spin-inoculation [4°C] and removal of unbound HIV-1 particles: post-CD4 binding). […] Percentages were calculated in relation to mock-treated cells. […]

CXCR4 = CXCR4 surface expression, flow cytometry; assay type: cell-based, human; details: PBMC and TZM-bl cells; E2 peptides 25 µM, SDF-1α 1 µg/ml; 6 hr; FACS; RTCN vs mock; average of two independent experiments each in triplicate
Procedure: as §1, §2, §3

CD4 = CD4 surface expression, flow cytometry; assay type: cell-based, human; details: PBMC and TZM-bl cells; E2 peptides 25 µM, PMA 40 ng/ml; 6 hr; FACS; RTCN vs mock; average of two independent experiments each in triplicate
Procedure: as §1, §2, §3

T32 = experiment: Unspecific binding of E2 peptides to antibody T32; details: data not shown
[2] = tested on: 6-helix bundle (N36/C34-biotin); experiment: Inhibition of 6-HB formation, ELISA; assay type: binding, HIV-1; details: mAb NC-1 capture, N36 0.25 µM, C34-biotin 0.25 µM, graded peptide, 30 min 37°C, triplicate
Procedure: Briefly, 96-well polystyrene plates were coated with the 6-HB-specific monoclonal antibody, NC-1 IgG, (described by) (2 µg/ml in 0.1 M Tris, pH 8.8), and then blocked with 2% non-fat milk. N36 (0.25 µM), the tested peptides and C34 as control were added at graded concentrations into the wells. After incubation for 30 min at 37°C, C34-biotin (0.25 µM) was added, followed by incubation for 45 min at 37°C and washing with wash buffer (PBS containing 0.05% Tween-20) six times. Streptavidin-labeled horseradish peroxidase (Invitrogen, Grand Island, NY) and the substrate 3,3′,5,5′-tetramethylbenzidine (Sigma, St. Louis, MO) were added sequentially. Absorbance at 450 nm (OD450) was measured. The percent inhibition of 6-HB formation by the peptides was calculated as described before.
Figure 5 E2-derived peptides bind to the disulfide loop of gp41. (A) Illustration of gp41 variants (strains IIIB, MN) and peptides (N36, C34) used in ELISA as well as the binding epitopes of different monoclonal gp41 antibodies. Gp41 consists of the N-terminal fusion peptide (FP), the N- and C-heptad repeats (NHR, CHR) that are connected by the disulfide loop region (C-C loop), the membrane proximal external region (MPER), the α-helical transmembrane-spanning domain (TM), and the cytoplasmic tail (CP). […] Each sample was tested in triplicate. This experiment was repeated twice and similar results were obtained. […]

Compound	CCR5 surface presentation (CCR5)	inhibition of virus-cell fusion, standard versus TAS conditions [1]	CXCR4 surface presentation (CXCR4)	CD4 surface presentation (CD4)	unspecific binding to antibody T32 (T32)	inhibition of 6-HB formation [2]
CC(=O)N[C@@H](CC(C)C)C(=O)N[C@@H](CS)C(=O)N[C@@H](CC(=O)O)C(=O)N[C@@H](CS)C(=O)N1CCC[C@H]1C(=O)N[C@@H](CC(N)=O)C(=O)NCC(=O)N1CCC[C@H]1C(=O)N[C@@H](Cc1c[nH]c2ccccc12)C(=O)N[C@H](C(=O)N[C@@H](Cc1c[nH]c2ccccc12)C(=O)N[C@H](C(=O)N1CCC[C@H]1C(=O)N[C@@H](C)C(=O)N[C@@H](Cc1ccccc1)C(=O)N[C@@H](CS)C(=O)N[C@@H](CCC(N)=O)C(=O)N[C@@H](C)C(=O)N[C@H](C(=O)NCC(=O)O)C(C)C)C(C)C)C(C)C [P6-2]	no relevant effect on HIV-1 receptor presentation	full activity under both conditions	no relevant effect on HIV-1 receptor presentation	no relevant effect on HIV-1 receptor presentation	No unspecific binding	Neither P4-7 nor P6-2 was able to interfere with the formation of 6-HB
Ac-WDRGNVTLLCDCPNGPWVWV [P4-7, 20 mer peptide presenting amino acids 37 to 56 of the GBV-C E2 protein]	no relevant effect on HIV-1 receptor presentation	full activity under both conditions	no relevant effect on HIV-1 receptor presentation	no relevant effect on HIV-1 receptor presentation	No unspecific binding	Neither P4-7 nor P6-2 was able to interfere with the formation of 6-HB
